# Legend:
# [1] = system: KJ541960 (wheat-derived P450) co-expressed with TaCPR; test: In vitro drug metabolism test of KJ541960 protein against fenquinotrione; format: in vitro ADME; conditions: test method and conditions of Example 1; KJ541960 reaction plot
# Experimental: (§1) It was verified by in vitro metabolism test whether or not a novel wheat-derived P450 of AK454412 is involved in herbicide metabolism. As a compound having high safety against wheat, fenquinotrione was used. […] A solution after completing the enzymatic reaction was centrifuged at 15,000 rpm for 1 minute, and the obtained supernatant was filtered through a 0.45 μm filter and then tested by LC/MS. LC/MS conditions were as follows:
# Therefore, synthesis of an artificial gene of the KJ541960 gene was requested of Eurofins Genomics K.K. Here, NdeI and EcoRI sites were respectively added to the 5′ and 3′ terminals of the CDS sequence of the gene. A DNA fragment of the KJ541960 gene was cleaved through NdeI/EcoRI treatment from the synthesized pEX-A2J2-KJ541960 plasmid, and was linked to pET-22b(+) vector, similarly having been subjected to NdeI/EcoRI treatment, with Ligation-Convenience Kit, and thus pET-22b-KJ541960 was produced (FIG. 13). […]
# It is noted that the KJ541960 gene, synthesized as the artificial gene, was set to encode an amino acid sequence, in which a membrane anchoring region of the 35 N-terminal amino acid residues was removed, and the 6β sequence (MAKKTSS) was added as the same conditions as in the AK454412 gene. […] Besides, the intensity of the peak of the detected demethylated product was substantially the same in both the reaction plots. […]
# [2] = system: AK369081 (barley-derived P450) co-expressed with TaCPR; test: In vitro drug metabolism test of AK369081 protein against fenquinotrione; format: in vitro ADME; conditions: test method and conditions of Example 1; AK369081 reaction plot
# Experimental: as §1
# Specifically, in the same manner as in KJ541960, recombinant proteins of these genes were prepared to evaluate, by in vitro test, whether or not these have fenquinotrione metabolic activity. First, an expression vector was designed by inserting, between NdeI and EcoRI sites of pET-22b(+), a nucleotide sequence, which encoded a sequence obtained by removing the transmembrane region (AK375492: 35 N-terminal amino acid residues, AK369081: 37 N-terminal amino acid residues) of each of the genes of Accession Nos. AK375492 and AK369081, and adding the 6β sequence (MAKKTSS) to the N-terminal, and synthesis of artificial genes was requested of GenScript. Each of the synthesized expression vectors (6β AK375492 in pET-22b, 6β AK369081 in pET-22b) was co-introduced, together with pACYC-del31_TaCPR, into E. coli BL21 star (DE3) strain for protein expression (FIG. 15). […]
# CYP81A6 = conditions: reported so far; cited from earlier work
# [3] = system: wild type Arabidopsis thaliana; test: Fenquinotrione sensitivity test on MS solid medium, wild type; format: in vivo; conditions: 10 nM in MS solid medium, 22° C., about 10 days, evaluated subjectively
# Experimental: With a sensitivity difference from wild type Arabidopsis thaliana used as an index, it was verified whether or not the created transformant had resistance to fenquinotrione. In MS solid media in each of which fenquinotrione was added to a final concentration of 10,000, 1,000, 100, 10, or 1 nM, or 0.1% of DMSO was added as an untreated plot, sterilized seeds of Arabidopsis thaliana having AK454412 forced expression and wild type Arabidopsis thaliana were each seeded, and grown at 22° C. for about 10 days. The sensitivity to this drug was evaluated subjectively in accordance with the degree of chlorosis of acting symptom. The results are illustrated in FIG. 9. FIG. 9(A) illustrates results obtained in using the wild type Arabidopsis thaliana, and FIG. 9(B) illustrates results obtained in using the Arabidopsis thaliana having AK454412 forced expression.
smiles,measurement,setting,value
COc1ccc(-n2c(=O)c(C(=O)C3C(=O)CCCC3=O)nc3c(Cl)cccc32)cc1 [fenquinotrione],metabolism of fenquinotrione (production of demethylated product as index),[1],"a parent peak of fenquinotrione was reduced, and a peak of the demethylated product appeared"
same,metabolism of fenquinotrione (generation of demethylated product as index),[2],a peak of the demethylated product (RT=in the vicinity of 15.1) appeared
same,metabolic reactivity of CYP81A6 against the compound,CYP81A6,exhibits metabolic reactivity
same,wild type Arabidopsis thaliana having chlorosis,[3],≥ 90%
